In patent publication US6706663B2, “Herbicidal 3-heterocyclic substituted benzisothiazole and benzisoxazole compounds” (Wyeth, priority 2000, dated 2004):

What was measured:
GALAP (Galium aparine) = assay: Postemergence herbicidal evaluation; type: in vivo
In short: (§1)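 Visual 0–9 injury scores versus control plants, covering stand, vigour, malformation, size, chlorosis and general appearance, taken four to five weeks post-spray and averaged over replicate tests. Plants were sprayed at roughly two weeks old and held on greenhouse benches.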

[1] = system: CASOB (Cassia obtusifolia); assay: Preemergence herbicidal evaluation; type: in vivo, L.; details: preemergence, rated 4-5 weeks after treatment
In short: (§2)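 Rating 0–9, visual, vs control; 4–5 wk after spraying seeded cups with compound in aq. acetone; conventional greenhouse care.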

[2] = system: CHEAL (Chenopodium album); assay: Preemergence herbicidal evaluation; type: in vivo, L.; details: preemergence, rated 4-5 weeks after treatment
In short: as §2

[3] = system: AMBEL (Ambrosia artemisifolia); assay: Preemergence herbicidal evaluation; type: in vivo, L.; details: preemergence, rated 4-5 weeks after treatment
In short: as §2

ORYSAT (Rice, Tebonnet) [4] = assay: Flooded paddy, post-transplant rice tolerance; type: in vivo, Oryza sativa, (L.) Tebonnet; details: flooded paddy, post-transplant rice, rated 3-4 weeks after treatment, 0-9 rating scale
In short: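 Two ten-day-old seedlings were transplanted into silt loam, flooded and held at 1.5 to 3 cm water above the soil before herbicide treatment. Pots stayed in the greenhouse at that water level. Injury was scored visually on a 0-9 scale versus untreated control.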

[5] = system: ABUTH (Abutilon theophrasti); assay: Postemergence herbicidal evaluation; type: in vivo, Medic.
In short: as §1

[6] = system: GLXMAW (Soybean, Williams); assay: Postemergence herbicidal evaluation; type: in vivo, Glycine max, (L.) Merr. cv Williams
In short: as §1

SETVI (Setaria viridis) [7] = assay: Postemergence herbicidal evaluation; type: in vivo, (L.) Beau
In short: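 Visual injury score (0-9: stand, vigor, malformation, size, chlorosis, overall appearance vs untreated control) taken four to five weeks post-spray. Two-week-old seedlings received about 0.0040 to 1.000 kg/ha active compound in acetone/water with 0.5% TWEEN 20.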

[8] = system: SAGPY (Sagittaria pygmaea); assay: Flooded paddy, preemergence weed control; type: in vivo, L.; details: rated 3-4 weeks after treatment, 0-9 rating scale
In short: (§3)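 Visual 0–9 ratings versus controls scored stand, vigor, malformation, size, chlorosis and overall appearance. Plants grew from seeds or propagating organs sown 0.5 cm deep in silt loam, with water held 1.5–3 cm above the soil for the whole test under greenhouse care.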

ZEAMX (Corn, Field) = assay: Postemergence herbicidal evaluation; type: in vivo, Zea mays, L.
In short: as §1

ORYSAT (Rice, Tebonnet) [9] = assay: Preemergence herbicidal evaluation; type: in vivo, Oryza sativa, (L.) Tebonnet; details: preemergence, rated 4-5 weeks after treatment
[10] = system: ECHCG (Echinochloa crus-galli); assay: Postemergence herbicidal evaluation; type: in vivo, (L.) Beau
In short: as §1

ORYSAT (Rice, Tebonnet) [11] = assay: Postemergence herbicidal evaluation; type: in vivo, Oryza sativa, (L.) Tebonnet
In short: as §1

SETVI (Setaria viridis) [12] = assay: Preemergence herbicidal evaluation; type: in vivo, (L.) Beau; details: preemergence, rated 4-5 weeks after treatment
In short: as §2

[13] = system: ECHCG (Echinochloa crus-galli); assay: Preemergence herbicidal evaluation; type: in vivo, (L.) Beau; details: preemergence, rated 4-5 weeks after treatment
In short: as §2

[14] = system: ECHORC (Echinochloa oryzoides); assay: Flooded paddy, preemergence weed control; type: in vivo, Echinochloa oryzoides (Ard.) Fritsch.; details: rated 3-4 weeks after treatment, 0-9 rating scale
In short: as §3

[15] = system: MOOVA (Monochoria vaginalis); assay: Flooded paddy, preemergence weed control; type: in vivo, Presl.; details: rated 3-4 weeks after treatment, 0-9 rating scale
In short: as §3

[16] = system: IPOHE (Ipomoea hederacea); assay: Postemergence herbicidal evaluation; type: in vivo, (L.) Jacq.
In short: as §1

CYPIR (Cyperus iria) = assay: Flooded paddy, preemergence weed control; type: in vivo; details: rated 3-4 weeks after treatment, 0-9 rating scale
In short: as §3

[17] = system: IPOHE (Ipomoea hederacea); assay: Preemergence herbicidal evaluation; type: in vivo, (L.) Jacq.; details: preemergence, rated 4-5 weeks after treatment

## Cc1cccnc1-c1nsc2ccc(-n3c(=O)cc(C(F)(F)F)n(C)c3=O)cc12 [Compound 19, 1-methyl-3-[3-(3-methyl-2-pyridyl)-1,2-benzisothiazol-5-yl]-6-(trifluoromethyl)uracil]
GALAP (Galium aparine); rate 0.0320 kg/ha
  Postemergence herbicidal rating, GALAP: 3.5
GALAP (Galium aparine); rate 0.0620 kg/ha
  Postemergence herbicidal rating, GALAP: 6.0
[1]; Rate 0.0620 kg/ha
  CASOB preemergence herbicidal rating: 4.7
[1]; Rate 0.1250 kg/ha
  CASOB preemergence herbicidal rating: 5.7
[1]; Rate 0.2500 kg/ha
  CASOB preemergence herbicidal rating: 8.3
[2]; Rate 0.0620 kg/ha
  CHEAL preemergence herbicidal rating: 9.0
[2]; Rate 0.1250 kg/ha
  CHEAL preemergence herbicidal rating: 9.0
[2]; Rate 0.2500 kg/ha
  CHEAL preemergence herbicidal rating: 9.0
[3]; Rate 0.0620 kg/ha
  AMBEL preemergence herbicidal rating: 6.7
[3]; Rate 0.1250 kg/ha
  AMBEL preemergence herbicidal rating: 9.0
[3]; Rate 0.2500 kg/ha
  AMBEL preemergence herbicidal rating: 9.0
ORYSAT (Rice, Tebonnet) [4]; rate 0.0080 kg/ha
  herbicidal rating, ORYSAT (rice tolerance): 2.0
ORYSAT (Rice, Tebonnet) [4]; rate 0.0320 kg/ha
  herbicidal rating, ORYSAT (rice tolerance): 6.5
ORYSAT (Rice, Tebonnet) [4]; rate 0.1250 kg/ha
  herbicidal rating, ORYSAT (rice tolerance): 8.0
[5]; rate 0.0320 kg/ha
  Postemergence herbicidal rating, ABUTH: 9.0
[5]; rate 0.0620 kg/ha
  Postemergence herbicidal rating, ABUTH: 9.0
[6]; rate 0.0320 kg/ha
  Postemergence herbicidal rating, GLXMAW: 8.3
[6]; rate 0.0620 kg/ha
  Postemergence herbicidal rating, GLXMAW: 8.0
SETVI (Setaria viridis) [7]; rate 0.0320 kg/ha
  Postemergence herbicidal rating, SETVI: 4.0
SETVI (Setaria viridis) [7]; rate 0.0620 kg/ha
  Postemergence herbicidal rating, SETVI: 6.5
[8]; rate 0.0080 kg/ha
  herbicidal rating, SAGPY: 0.0
[8]; rate 0.0320 kg/ha
  herbicidal rating, SAGPY: 2.5
[8]; rate 0.1250 kg/ha
  herbicidal rating, SAGPY: 7.0
ZEAMX (Corn, Field); rate 0.0320 kg/ha
  Postemergence herbicidal rating, ZEAMX: 5.3
ZEAMX (Corn, Field); rate 0.0620 kg/ha
  Postemergence herbicidal rating, ZEAMX: 5.3
ORYSAT (Rice, Tebonnet) [9]; Rate 0.0620 kg/ha
  ORYSAT preemergence herbicidal rating: 5.3
ORYSAT (Rice, Tebonnet) [9]; Rate 0.1250 kg/ha
  ORYSAT preemergence herbicidal rating: 7.0
ORYSAT (Rice, Tebonnet) [9]; Rate 0.2500 kg/ha
  ORYSAT preemergence herbicidal rating: 8.0
[10]; rate 0.0320 kg/ha
  Postemergence herbicidal rating, ECHCG: 2.0
[10]; rate 0.0620 kg/ha
  Postemergence herbicidal rating, ECHCG: 3.0
ORYSAT (Rice, Tebonnet) [11]; rate 0.0320 kg/ha
  Postemergence herbicidal rating, ORYSAT: 3.3
ORYSAT (Rice, Tebonnet) [11]; rate 0.0620 kg/ha
  Postemergence herbicidal rating, ORYSAT: 3.5
SETVI (Setaria viridis) [12]; Rate 0.0620 kg/ha
  SETVI preemergence herbicidal rating: 9.0
SETVI (Setaria viridis) [12]; Rate 0.1250 kg/ha
  SETVI preemergence herbicidal rating: 9.0
SETVI (Setaria viridis) [12]; Rate 0.2500 kg/ha
  SETVI preemergence herbicidal rating: 9.0
[13]; Rate 0.0620 kg/ha
  ECHCG preemergence herbicidal rating: 9.0
[13]; Rate 0.1250 kg/ha
  ECHCG preemergence herbicidal rating: 9.0
[13]; Rate 0.2500 kg/ha
  ECHCG preemergence herbicidal rating: 9.0
[14]; rate 0.0080 kg/ha
  herbicidal rating, ECHORC: 2.0
[14]; rate 0.0320 kg/ha
  herbicidal rating, ECHORC: 8.0
[14]; rate 0.1250 kg/ha
  herbicidal rating, ECHORC: 9.0
[15]; rate 0.0080 kg/ha
  herbicidal rating, MOOVA: 4.0
[15]; rate 0.0320 kg/ha
  herbicidal rating, MOOVA: 9.0
[15]; rate 0.1250 kg/ha
  herbicidal rating, MOOVA: 9.0
[16]; rate 0.0320 kg/ha
  Postemergence herbicidal rating, IPOHE: 8.0
[16]; rate 0.0620 kg/ha
  Postemergence herbicidal rating, IPOHE: 9.0
CYPIR (Cyperus iria); rate 0.0080 kg/ha
  herbicidal rating, CYPIR: 0.0
CYPIR (Cyperus iria); rate 0.0320 kg/ha
  herbicidal rating, CYPIR: 5.0
CYPIR (Cyperus iria); rate 0.1250 kg/ha
  herbicidal rating, CYPIR: 9.0
[17]; Rate 0.0620 kg/ha
  IPOHE preemergence herbicidal rating: 9.0
[17]; Rate 0.1250 kg/ha
  IPOHE preemergence herbicidal rating: 8.7
[17]; Rate 0.2500 kg/ha
  IPOHE preemergence herbicidal rating: 9.0
